Reference: the supplement of paper PMC11451515

Tests used:
Details in all cases: 48 h
P12-Ichikawa [1] = experiment: AUC of viability dose-response curve (% viability x log10 dose units); higher = less sensitive
Method in brief: (§1)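 Over 48 h at 37°C, leukemia cells in 1536-well plates (500 or 1000 cells/well), adapted to each medium, received library compounds in DMSO at 11 threefold doses from 47 μM to 0.79 nM. CellTiter-Glo One luminescence, normalised per plate to DMSO and cell-free wells, was fitted by a four-parameter log-logistic function of log10 dose. The area under the curve was then integrated by trapezoidal rule, after scaling curves above full viability and removing those that failed quality control.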

NOMO1 [2] = experiment: as above
Method in brief: as §1

SEM cells [3] = experiment: as above
Method in brief: as §1

P12-Ichikawa [4] = experiment: cell viability relative to DMSO control; higher = less cytotoxic
Method in brief: (§2)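 Viability was expressed as a per-plate percentage of DMSO wells, with cell-free wells as background. Leukemia cells (NOMO1 or SEM at 500 cells/well, P12-Ichikawa at 1000 cells/well) were adapted for at least four passages in each medium and seeded in 1536-well plates (5 μl). Library compounds in DMSO were pin-dosed over an 11-point threefold series from 47 μM to 0.79 nM, and CellTiter-Glo One luminescence was read after 48 h at 37°C.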

NOMO1 [5] = experiment: as above
Method in brief: as §2

SEM cells [6] = experiment: as above
Method in brief: as §2

COc1cc2c(Nc3ccc(Cl)c(Cl)c3F)ncnc2cc1OC[C@@H]1C[C@@H]2CN(C)C[C@@H]2C1
AUC of viability dose-response curve
Details | NOMO1 [2] | P12-Ichikawa [1] | SEM cells [3]
HPLM + 10% dialyzed FBS | 355 | 388 | 383
RPMI 5 mM glucose + 10% FBS | 437 | 388 | 358
RPMI 5 mM glucose + 10% dialyzed FBS | 418 | 401 | 379

cell viability [%]
Details | NOMO1 [5] | P12-Ichikawa [4] | SEM cells [6]
HPLM + 10% dialyzed FBS, 0.000781 µM | 109 | 105 | 105
HPLM + 10% dialyzed FBS, 0.00234 µM | 113 | 115 | 118
HPLM + 10% dialyzed FBS, 0.00702 µM | 116 | 118 | 121
HPLM + 10% dialyzed FBS, 0.0211 µM | 119 | 126 | 120
HPLM + 10% dialyzed FBS, 0.0632 µM | 115 | 119 | 98.8
HPLM + 10% dialyzed FBS, 0.19 µM | 88.4 | 111 | 113
HPLM + 10% dialyzed FBS, 0.569 µM | 81.2 | 109 | 100
HPLM + 10% dialyzed FBS, 1.71 µM | 73 | 83.2 | 93.3
HPLM + 10% dialyzed FBS, 5.12 µM | 50.7 | 71.1 | 56
HPLM + 10% dialyzed FBS, 15.4 µM | 53.4 | 49.5 | 47
HPLM + 10% dialyzed FBS, 46.1 µM | 20.7 | 10.1 | 10.1
RPMI 5 mM glucose + 10% FBS, 0.000781 µM | 114 | – | 98
RPMI 5 mM glucose + 10% FBS, 0.00234 µM | 121 | – | 117
RPMI 5 mM glucose + 10% FBS, 0.00702 µM | 131 | – | 121
RPMI 5 mM glucose + 10% FBS, 0.0211 µM | 130 | – | 144
RPMI 5 mM glucose + 10% FBS, 0.0632 µM | 127 | – | 118
RPMI 5 mM glucose + 10% FBS, 0.19 µM | 126 | – | 118
RPMI 5 mM glucose + 10% FBS, 0.569 µM | 119 | – | 101
RPMI 5 mM glucose + 10% FBS, 1.71 µM | 117 | – | 64.2
RPMI 5 mM glucose + 10% FBS, 5.12 µM | 87.9 | – | 44.4
RPMI 5 mM glucose + 10% FBS, 15.4 µM | 101 | – | 48
RPMI 5 mM glucose + 10% FBS, 46.1 µM | 22.5 | – | 5.51
RPMI 5 mM glucose + 10% dialyzed FBS, 0.000781 µM | 101 | – | 112
RPMI 5 mM glucose + 10% dialyzed FBS, 0.00234 µM | 124 | – | 109
RPMI 5 mM glucose + 10% dialyzed FBS, 0.00702 µM | 125 | – | 133
RPMI 5 mM glucose + 10% dialyzed FBS, 0.0211 µM | 118 | – | 129
RPMI 5 mM glucose + 10% dialyzed FBS, 0.0632 µM | 124 | – | 119
RPMI 5 mM glucose + 10% dialyzed FBS, 0.19 µM | 123 | – | 124
RPMI 5 mM glucose + 10% dialyzed FBS, 0.569 µM | 112 | – | 110
RPMI 5 mM glucose + 10% dialyzed FBS, 1.71 µM | 98.3 | – | 75.8
RPMI 5 mM glucose + 10% dialyzed FBS, 5.12 µM | 79.1 | – | 67
RPMI 5 mM glucose + 10% dialyzed FBS, 15.4 µM | 83.9 | – | 55.7
RPMI 5 mM glucose + 10% dialyzed FBS, 46.1 µM | 24.3 | – | 6.25

CCC[C@H](N[C@@H](C)C(=O)N1[C@H](C(=O)O)C[C@@H]2CCCC[C@@H]21)C(=O)OCC
AUC of viability dose-response curve
Details | NOMO1 [2] | P12-Ichikawa [1] | SEM cells [3]
HPLM + 10% dialyzed FBS | 394 | 454 | 469
RPMI 5 mM glucose + 10% FBS | 439 | 433 | 469
RPMI 5 mM glucose + 10% dialyzed FBS | 399 | 438 | 466

cell viability [%]
Details | NOMO1 [5] | P12-Ichikawa [4] | SEM cells [6]
HPLM + 10% dialyzed FBS, 0.000781 µM | 115 | 110 | 114
HPLM + 10% dialyzed FBS, 0.00234 µM | 124 | 108 | 111
HPLM + 10% dialyzed FBS, 0.00702 µM | 119 | 109 | 104
HPLM + 10% dialyzed FBS, 0.0211 µM | 119 | 113 | 114
HPLM + 10% dialyzed FBS, 0.0632 µM | 105 | 104 | 120
HPLM + 10% dialyzed FBS, 0.19 µM | 102 | 115 | 115
HPLM + 10% dialyzed FBS, 0.569 µM | 115 | 112 | 118
HPLM + 10% dialyzed FBS, 1.71 µM | 89.4 | 109 | 112
HPLM + 10% dialyzed FBS, 5.12 µM | 36 | 93.2 | 106
HPLM + 10% dialyzed FBS, 15.4 µM | 54.1 | 88.1 | 111
HPLM + 10% dialyzed FBS, 46.1 µM | 43.9 | 84.7 | 105
RPMI 5 mM glucose + 10% FBS, 0.000781 µM | 97.4 | 106 | 107
RPMI 5 mM glucose + 10% FBS, 0.00234 µM | 101 | 103 | 101
RPMI 5 mM glucose + 10% FBS, 0.00702 µM | 115 | 121 | 107
RPMI 5 mM glucose + 10% FBS, 0.0211 µM | 109 | 112 | 110
RPMI 5 mM glucose + 10% FBS, 0.0632 µM | 111 | 117 | 105
RPMI 5 mM glucose + 10% FBS, 0.19 µM | 106 | 108 | 116
RPMI 5 mM glucose + 10% FBS, 0.569 µM | 105 | 106 | 104
RPMI 5 mM glucose + 10% FBS, 1.71 µM | 95.3 | 97.9 | 110
RPMI 5 mM glucose + 10% FBS, 5.12 µM | 86.7 | 77.1 | 105
RPMI 5 mM glucose + 10% FBS, 15.4 µM | 78.9 | 79.5 | 98.6
RPMI 5 mM glucose + 10% FBS, 46.1 µM | 64.6 | 71.6 | 102
RPMI 5 mM glucose + 10% dialyzed FBS, 0.000781 µM | 114 | 124 | 110
RPMI 5 mM glucose + 10% dialyzed FBS, 0.00234 µM | 110 | 99 | 105
RPMI 5 mM glucose + 10% dialyzed FBS, 0.00702 µM | 118 | 113 | 108
RPMI 5 mM glucose + 10% dialyzed FBS, 0.0211 µM | 116 | 111 | 122
RPMI 5 mM glucose + 10% dialyzed FBS, 0.0632 µM | 108 | 122 | 111
RPMI 5 mM glucose + 10% dialyzed FBS, 0.19 µM | 109 | 116 | 110
RPMI 5 mM glucose + 10% dialyzed FBS, 0.569 µM | 96.2 | 103 | 107
RPMI 5 mM glucose + 10% dialyzed FBS, 1.71 µM | 87.5 | 110 | 106
RPMI 5 mM glucose + 10% dialyzed FBS, 5.12 µM | 66.4 | 87.3 | 125
RPMI 5 mM glucose + 10% dialyzed FBS, 15.4 µM | 72.6 | 78.3 | 122
RPMI 5 mM glucose + 10% dialyzed FBS, 46.1 µM | 48.2 | 69.8 | 106

C\C1=C\C(=O)C2=C(C=CC=C2)C1=O
AUC of viability dose-response curve
Details | NOMO1 [2] | P12-Ichikawa [1] | SEM cells [3]
HPLM + 10% dialyzed FBS | 466 | 465 | 464
RPMI 5 mM glucose + 10% FBS | 460 | 440 | 458
RPMI 5 mM glucose + 10% dialyzed FBS | 456 | 468 | 435

cell viability [%]
Details | NOMO1 [5] | P12-Ichikawa [4] | SEM cells [6]
HPLM + 10% dialyzed FBS, 0.000781 µM | 100 | 108 | 95.9
HPLM + 10% dialyzed FBS, 0.00234 µM | 122 | 104 | 110
HPLM + 10% dialyzed FBS, 0.00702 µM | 117 | 118 | 102
HPLM + 10% dialyzed FBS, 0.0211 µM | 134 | 125 | 109
HPLM + 10% dialyzed FBS, 0.0632 µM | 132 | 128 | 126
HPLM + 10% dialyzed FBS, 0.19 µM | 126 | 120 | 123
HPLM + 10% dialyzed FBS, 0.569 µM | 126 | 127 | 106
HPLM + 10% dialyzed FBS, 1.71 µM | 134 | 125 | 114
HPLM + 10% dialyzed FBS, 5.12 µM | 128 | 122 | 111
HPLM + 10% dialyzed FBS, 15.4 µM | 131 | 116 | 96.1
HPLM + 10% dialyzed FBS, 46.1 µM | 127 | 123 | 80.4
RPMI 5 mM glucose + 10% FBS, 0.000781 µM | 116 | 107 | 104
RPMI 5 mM glucose + 10% FBS, 0.00234 µM | 108 | 119 | 101
RPMI 5 mM glucose + 10% FBS, 0.00702 µM | 120 | 109 | 113
RPMI 5 mM glucose + 10% FBS, 0.0211 µM | 125 | 130 | 111
RPMI 5 mM glucose + 10% FBS, 0.0632 µM | 133 | 125 | 113
RPMI 5 mM glucose + 10% FBS, 0.19 µM | 133 | 118 | 106
RPMI 5 mM glucose + 10% FBS, 0.569 µM | 137 | 125 | 101
RPMI 5 mM glucose + 10% FBS, 1.71 µM | 124 | 135 | 89.2
RPMI 5 mM glucose + 10% FBS, 5.12 µM | 129 | 134 | 95.3
RPMI 5 mM glucose + 10% FBS, 15.4 µM | 125 | 139 | 95.9
RPMI 5 mM glucose + 10% FBS, 46.1 µM | 140 | 131 | 59.9
RPMI 5 mM glucose + 10% dialyzed FBS, 0.000781 µM | 119 | 119 | 94.7
RPMI 5 mM glucose + 10% dialyzed FBS, 0.00234 µM | 117 | 122 | 102
RPMI 5 mM glucose + 10% dialyzed FBS, 0.00702 µM | 131 | 121 | 114
RPMI 5 mM glucose + 10% dialyzed FBS, 0.0211 µM | 130 | 130 | 114
RPMI 5 mM glucose + 10% dialyzed FBS, 0.0632 µM | 140 | 127 | 112
RPMI 5 mM glucose + 10% dialyzed FBS, 0.19 µM | 128 | 137 | 111
RPMI 5 mM glucose + 10% dialyzed FBS, 0.569 µM | 135 | 128 | 117
RPMI 5 mM glucose + 10% dialyzed FBS, 1.71 µM | 151 | 118 | 111
RPMI 5 mM glucose + 10% dialyzed FBS, 5.12 µM | 128 | 120 | 84.3
RPMI 5 mM glucose + 10% dialyzed FBS, 15.4 µM | 148 | 131 | 71.3
RPMI 5 mM glucose + 10% dialyzed FBS, 46.1 µM | 134 | 128 | 50.6
